Test results published in ChEMBL document CHEMBL4420066, “Aryl amine substituted quinoxaline used as anticancer drugs” (2017).
Active and inactive are the calls of the source. The calls are words filed in the database; no cut-off is given here.

Key:
Hep 3B2 [1] = assay: Inhibition of PP2A-C protein expression in human Hep3B cells at 1 uM incubated for 24 hrs by Western blotting analysis; format: functional, cell-based
HA22T cell line [2] = assay: Inhibition of CIP2A protein expression in human HA22T cells at 1 uM by Western blotting analysis; format: functional, cell-based; settings: TDE = time-dependent effect
Homo sapiens [3] = organism: Homo sapiens; assay: Induction of necrosis in human PLC5cells >= 2 uM incubated for 48 hrs by annexin-V-FITC staining based by flow cytometry relative to control; format: functional
Homo sapiens [4] = organism: Homo sapiens; assay: Inhibition of CIP2A mRNA expression in human PLC5 cells at 1 to 4 uM by RT-PCR analysis; format: functional, cell-based
Hep 3B2 [5] = assay: Induction of apoptosis in human Hep3B cells assessed as accumulation at subG1 phase at 0.5 to 4 uM by flow cytometry; format: functional, cell-based
Homo sapiens [6] = organism: Homo sapiens; assay: Activation of PP2A in human Hep3B cells assessed as increase in protein phosphatase activity at 1 uM incubated for 24 hrs using phosphopeptide substrate incubated for 10 mins by malachite green-phosphate complex assay; format: cell-based
Homo sapiens [7] = organism: Homo sapiens; assay: Inhibition of CIP2A protein expression in human PLC5 cells at 2 uM by Western blotting analysis; format: functional, cell-based
HA22T cell line [8] = assay: Induction of apoptosis in human HA22T cells assessed as induction of PARP cleavage at 0.5 to 4 uM incubated for 48 hrs by Western blotting analysis; format: functional, cell-based
[9] = Inhibition of CIP2A protein expression in human PLC5 cells assessed as CIP2A protein expression ratio level at 2 uM by Western blotting analysis (Rvb =1); format: functional
Hep 3B2 [10] = assay: Induction of apoptosis in human Hep3B cells >= 2 uM incubated for 48 hrs by annexin-V-FITC staining based by flow cytometry relative to control; format: functional
Homo sapiens [11] = organism: Homo sapiens; assay: Inhibition of human CIP2A gene promoter activity in human PLC5 cells by luciferase reporter gene assay; format: cell-based
Homo sapiens [12] = organism: Homo sapiens; assay: Induction of apoptosis in human PLC5 cells at 2 uM incubated for 24 hrs in presence of 100 nM PP2A inhibitor okadaic acid by annexin-V-FITC staining based by flow cytometry; format: functional, cell-based
Hep 3B2 [13] = assay: Inhibition of CIP2A protein expression in human Hep3B cells by Western blotting analysis; format: functional, cell-based
HA22T cell line [14] = assay: Inhibition of PP2A-A protein expression in human HA22T cells at 1 uM incubated for 24 hrs by Western blotting analysis; format: functional, cell-based
Homo sapiens [15] = organism: Homo sapiens; assay: Inhibition of ELK1 protein expression in human PLC5 cells at 2 uM by Western blotting analysis; format: functional, cell-based
HA22T cell line [16] = assay: Inhibition of PP2A-C protein expression in human HA22T cells at 1 uM incubated for 24 hrs by Western blotting analysis; format: functional, cell-based
Homo sapiens [17] = organism: Homo sapiens; assay: Activation of PP2A in human Hep3B cells assessed as minimal concentration causing increase in protein phosphatase activity incubated for 24 hrs using phosphopeptide substrate incubated for 10 mins by malachite green-phosphate complex assay; format: cell-based
SK-HEP1 = assay: Inhibition of PP2A-A protein expression in human SKHEP1 cells at 1 uM incubated for 24 hrs by Western blotting analysis; format: functional, cell-based
Homo sapiens [18] = organism: Homo sapiens; assay: Activation of PP2A in human HA22T cells assessed as increase in protein phosphatase activity at 1 uM incubated for 24 hrs using phosphopeptide substrate incubated for 10 mins by malachite green-phosphate complex assay; format: cell-based
HA22T cell line [19] = assay: Inhibition of CIP2A protein expression in human HA22T cells assessed as CIP2A protein expression ratio level at 4 uM by Western blotting analysis (Rvb =1); format: functional
[20] = molecular target: Serine/threonine-protein kinase AKT (Homo sapiens) (UniProt P31751+Q9Y243+P31749); assay: Inhibition of Akt phosphorylation at S473 residue in human SKHEP1 cells by Western blotting analysis; format: cell-based
Serine/threonine-protein kinase AKT (Homo sapiens), sequence (P31749 whole entry, looked up): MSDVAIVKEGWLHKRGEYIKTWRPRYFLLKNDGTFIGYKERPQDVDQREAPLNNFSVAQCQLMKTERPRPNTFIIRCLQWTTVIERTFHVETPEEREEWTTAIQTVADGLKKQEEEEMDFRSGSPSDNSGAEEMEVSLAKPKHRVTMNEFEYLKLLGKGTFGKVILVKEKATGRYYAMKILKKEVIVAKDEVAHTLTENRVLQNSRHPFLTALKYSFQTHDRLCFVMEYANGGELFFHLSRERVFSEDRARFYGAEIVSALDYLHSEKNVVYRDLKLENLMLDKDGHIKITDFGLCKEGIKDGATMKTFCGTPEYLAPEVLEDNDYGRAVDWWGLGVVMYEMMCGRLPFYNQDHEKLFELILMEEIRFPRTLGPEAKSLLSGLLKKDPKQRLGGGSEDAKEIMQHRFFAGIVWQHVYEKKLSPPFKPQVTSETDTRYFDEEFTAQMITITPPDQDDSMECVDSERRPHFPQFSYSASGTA
Serine/threonine-protein kinase AKT (Homo sapiens), sequence (P31751 whole entry, looked up): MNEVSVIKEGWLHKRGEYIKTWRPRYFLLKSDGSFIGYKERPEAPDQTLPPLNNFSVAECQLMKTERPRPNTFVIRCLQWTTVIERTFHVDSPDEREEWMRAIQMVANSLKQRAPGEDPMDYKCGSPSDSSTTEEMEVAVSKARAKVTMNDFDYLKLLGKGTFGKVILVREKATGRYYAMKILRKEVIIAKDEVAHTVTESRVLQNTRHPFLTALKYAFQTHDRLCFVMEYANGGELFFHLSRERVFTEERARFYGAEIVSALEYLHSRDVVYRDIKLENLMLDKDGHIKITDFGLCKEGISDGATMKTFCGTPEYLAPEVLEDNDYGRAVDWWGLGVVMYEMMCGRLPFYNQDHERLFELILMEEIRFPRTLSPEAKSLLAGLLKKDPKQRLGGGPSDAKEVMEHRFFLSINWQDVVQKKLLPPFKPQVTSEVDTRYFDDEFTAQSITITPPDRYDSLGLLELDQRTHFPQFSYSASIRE
Serine/threonine-protein kinase AKT (Homo sapiens), sequence (Q9Y243 whole entry, looked up): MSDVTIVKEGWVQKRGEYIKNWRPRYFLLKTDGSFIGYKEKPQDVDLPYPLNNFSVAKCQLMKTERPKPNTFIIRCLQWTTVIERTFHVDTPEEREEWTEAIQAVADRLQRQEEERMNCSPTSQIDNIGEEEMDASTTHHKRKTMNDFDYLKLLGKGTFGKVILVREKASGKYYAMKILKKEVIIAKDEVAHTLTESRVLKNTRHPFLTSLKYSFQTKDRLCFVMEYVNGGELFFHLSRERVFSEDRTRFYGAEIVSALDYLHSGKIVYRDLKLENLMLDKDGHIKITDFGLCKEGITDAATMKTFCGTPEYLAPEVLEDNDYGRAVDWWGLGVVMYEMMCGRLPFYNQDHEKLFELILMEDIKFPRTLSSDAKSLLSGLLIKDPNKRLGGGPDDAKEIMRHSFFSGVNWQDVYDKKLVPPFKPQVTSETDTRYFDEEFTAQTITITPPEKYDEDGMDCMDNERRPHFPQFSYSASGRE

inhibition [20]: Dose-dependent effect
Structure (SMILES): C#Cc1cccc(Nc2nc3ccccc3nc2Nc2cccc(C#C)c2)c1
inhibition (Hep 3B2 [1]): inactive
inhibition (HA22T cell line [2]): Tde
Activity (Homo sapiens [3]): 50%
inhibition (Homo sapiens [4]): Active
Activity (Hep 3B2 [5]): Active
Activity (Homo sapiens [6]): Active
inhibition (Homo sapiens [7]): inactive
Activity (HA22T cell line [8]): Dose-dependent effect
Ratio [9]: 0.01
Activity (Hep 3B2 [10]): 50%
inhibition (Homo sapiens [11]): Dose-dependent effect
Activity (Homo sapiens [12]): inactive
inhibition (Hep 3B2 [13]): Dose-dependent effect
inhibition (HA22T cell line [14]): inactive
inhibition (Homo sapiens [15]): inactive
inhibition (HA22T cell line [16]): inactive
MEC (Homo sapiens [17]): 100 to 200 nM
inhibition (SK-HEP1): inactive
Activity (Homo sapiens [18]): Active
Ratio (HA22T cell line [19]): 0.01
